# From patent publication US20220395500A1, “SMALL MOLECULE ACTIVATORS OF INTERFERON REGULATORY FACTOR 3 AND METHODS OF USE THEREOF” (Neuralexo, Inc., priority 2020, published 2022)
# Where two headings read alike, the source gives them in different places.
# Legend:
# [1] = THP1-Dual cytotoxicity (Cell Titer Glo, ATP); type: cell-based, human; details: human, THP1-Dual cells, read-out: Thp1 cytotox CC50
# Summary of the method: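 Human THP1-Dual cells were treated across an 8-point dose-response range. Cytotoxicity was measured in-plate by CellTiter-Glo luminescence, which quantifies ATP as a marker of metabolically active cells, and CC50 was taken as the 50% cytotoxic concentration.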
# [2] = system: IRF-Lucia luciferase reporter (ISRE) in THP1-Dual cells; test: THP1-Dual IRF-Lucia luciferase reporter assay (ISRE activation); type: cell-based, human; details: for EC50: Homo sapiens, THP1-Dual, read-out: THP1 IRF EC50
# Summary of the method: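 THP1-Dual cells were differentiated with 5 ng/mL PMA for 48 h at 37° C, washed, then treated with compounds at 10 μM final for 24 h; LPS at 313 ng/mL served as control. ISRE-driven Lucia luciferase in supernatant was read by luminescence.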
# J774-Dual cytotoxicity = type: cell-based, mouse; details: mouse, J774-Dual cells, read-out: J774 cytotox CC50
# Summary of the method: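 Orthogonal cross-species screen in mouse J774-Dual cells using 8-point dose-response format. Cytotoxicity measured in-plate by CellTiter-Glo luminescence, giving CC50 alongside EC50 and ISRE:NFκB ratios.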
# [3] = system: NF-κB-SEAP reporter in J774-Dual cells; test: J774-Dual NF-κB-SEAP reporter assay; type: cell-based, mouse; details: for EC50: Mus musculus, read-out: J774 NFkB EC50
# Experimental: (§1) First, optimal assay conditions and assay quality in 384-well format were determined. As mentioned, the mouse macrophage J774 cell line (J774-Dual, InvivoGen) stably transfected with the same inducible reporters described above (e.g., IRF-Lucia luciferase and NF-κB-SEAP) was used. The responsiveness of the J774-Dual cell line was investigated in an array of assay conditions to obtain sensitive and reproducible results for the activation of the IRF and NF-κB reporters. An optimal plating density and conditions for these cells was established for these cells in a 384-well format. Assay work-flow is similar to that discussed above for the THP1-Dual assay without a need for cell differentiation. Thus, cells are seeded directly in growth medium and incubated at 37° C. in a 5% C02 incubator for 24 hours prior to the programmed treatments being added as described herein.
# (§2) The primary high throughput screen used the HTS platform of human THP1 monocyte cells containing the IRF-Lucia luciferase and NFκB-SEAP (secreted embryonic alkaline phosphatase) dual reporter (THP1-Dual, Invivogen), enabling the simultaneous study of the IRF and NFκB signaling pathways respectively. As discussed, the Lucia luciferase reporter gene is under the control of an ISG54 (interferon-stimulated gene) minimal promoter in conjunction with five interferon-stimulated response elements (ISRE). The SEAP gene is driven by an IFNβ minimal promoter fused to five copies of the NFκB consensus transcriptional response element and three copies of the c-Rel binding site. Both IRF-Lucia luciferase and NFκB-SEAP reporter proteins are secreted and readily measurable in the cell culture supernatant when using QUANTI-Luc™ and QUANTI-Blue™ detection reagents, respectively. Identified “hits” were confirmed in a secondary screen with an 8-point dose response curve. Hits were further screened for activity in the mouse using the mouse J774 macrophage-like cell line containing the identical reporter constructs (J774-Dual, Invivogen).
# (§3) The OTRADI Small Molecule Library of approximately 246,000 diverse compounds (see below for description) was screened using the THP1-Dual based HTS platform described above. All transfer steps in the screen are fully automated, thus reducing variability. Primary screening included a single data point or dose for each molecule. After data normalization was applied for each assay run, “hit” selection was performed on the plates that pass the quality control (QC) criterion. Hits were defined as samples having values above the activity cutoff determined based on noise level of the assay to reduce false positive rates. In the pilot study discussed above this activity value was >3σ above the ISRE mean with the added criteria of NFκB activation being lower than […] from the mean to identify IRF selective compounds. The ratio of ISRE:NFκB activity was also calculated as a selectivity index for prioritizing hit selection. Primary hits underwent secondary screening to determine the 50% effective concentration (EC50) and 50% cytotoxic concentration (CC50) of these agents using an 8-point dose-response curve in the human THP1-Dual cells. Cytotoxicity was measured in the plate using Cell Titer Glo (Promega). Identified candidate compounds were further screened (orthogonal screen) for cross species activity in the validated mouse J774-Dual assay using an 8-point dose-response format to determine EC50 and CC50 values as well as ISRE:NFκB ratios. A general process flow for the experimental design laid out above is depicted at FIG. 12.
# [4] = system: NF-κB-SEAP reporter in THP1-Dual cells; test: THP1-Dual NF-κB-SEAP reporter counterscreen; type: cell-based, human; details: Homo sapiens, THP1-Dual, read-out: THP1 NFkB EC50
# Experimental: THP1 Dual (InvivoGen) cell suspensions were cultured in RPMI 1640 (Hyclone, Logan, Utah) supplemented with 10% fetal bovine serum (Hyclone), 100 U/mL Normocin (Invivogen), and 50 U/mL PenStrep (Gibco, Dublin, Ireland) between a density of 7·10^5-2·10^6 cells/mL. Every other passage, media was supplemented with 5 U/mL Blasticidin and 100 U/mL Zeocin to maintain the expression constructs. White, flat-bottom 384-well plates (Greiner, Kremsmunster, Austria, 781080) were seeded with 2.5·10^4 cells/well in a total of 50 μL media containing 5 ng/mL phorbolmyristic acid (PMA) using a Matrix WellMate (Thermo Scientific) dispenser. After 48 hours of incubation at 37° C., media was removed using a BioTek ELx405 CW plate washer set to aspirate and wash each well three times with 65 μL 1×PBS. Plates were reloaded with 50 μL media without PMA and treatments added. Lipopolysaccharide in dimethylsulfoxide (DMSO) was transferred to control wells using a HP D300 microdispenser to a final concentration of 313 ng/mL. Compounds from chemical library plates were copied using a Sciclone (Caliper LifeSciences) mounted with a 384-pin transfer tool to obtain a final concentration of 10 μM. After incubation with treatments for 24 hours, 10 μL of supernatant media from each well was transferred into a white, flat-bottom 384-well plate for luminescence readout and a black-walled, clear flat-bottom 384-well plate for absorbance readout.
# Specifically, to enable screening of novel chemical entities (NCEs) in a larger screening effort, a robust high-throughput cell-based assay system for primary hit identification of ISRE activators based on the above-mentioned target validation was desired. Human ISRE activity was verified using a THP-1 monocyte line containing the NF-κB-SEAP and IRF-Lucia luciferase dual reporter (THP1-Dual; Invivogen) that features two reporter genes, SEAP (secreted embryonic alkaline phosphatase) and Lucia luciferase, thereby enabling the simultaneous study of the NF-κB and IRF signalling pathways. The Lucia luciferase reporter is under the control of an ISG54 (interferon-stimulated gene) minimal promoter in conjunction with five IFN-stimulated response elements. The SEAP gene is driven by an IFN-β minimal promoter fused to five copies of the NF-κB consensus transcriptional response element and three copies of the c-Rel binding site. Both reporter proteins are readily measurable in the cell culture supernatant when using QUANTI-LUC™ and QUANTI-Blue SEAP detection reagents.
# Using the experimental design and data analysis outlined above, optimized assay conditions were obtained. The responsiveness of the human THP-1 Dual cell line was evaluated in an array of assay conditions to obtain sensitive and reproducible results for the activation of IRF and NF-κB reporters. An optimal plating density and differentiation protocol for these cells was established in a 384-well format. All transfer steps are fully automated using high throughput robotic equipment. Briefly, cells are seeded in differentiation medium using a Matrix WellMate fitted with the WellMate Stacker (Thermo Scientific) and incubated at 37° C. with 5% CO2 for 48 h. Following differentiation, cells are washed using a BioTek ELx405 Select CW plate washer and growth medium added with the Matrix WellMate. Programmed control treatments are added to wells using a D300 digital dispenser fitted with T8+ dispense heads (Hewlett Packard) designed to dispense nanoliter quantities of material. Compounds from library plates are added using a pin tool fitted to a Sciclone ALH 3000 Workstation (Caliper Life Sciences) programmed with Maestro v4.4. After treatment, plates are returned to incubators for 24 hours. To measure reporter expression, supernatant is collected using the Sciclone and dispensed into 2 plates: 1) a white 384-well assay plate for Lucia luminescence measurements and 2) a clear-bottom black 384-well assay plate for SEAP absorbance measurements. […]
# [5] = system: IRF-Lucia luciferase reporter (ISRE) in J774-Dual cells; test: J774-Dual IRF-Lucia luciferase reporter assay (ISRE activation); type: cell-based, mouse; details: for EC50: Mus musculus, read-out: J774 IRF EC50
# Experimental: as §1, §2, §3
# [6] = Human Reporter Cell Line, 8-point dose response
# [7] = J774, Mouse Reporter Cell Line, 8-point dose response
# [8] = J774, Mouse Reporter Cell Line J774
Structure (SMILES),CC50 ([1]; Human Reporter Cell Line THP1) [µM],EC50 ([2]; Human Reporter Cell Line THP1) [µM],CC50 (J774-Dual cytotoxicity; Mouse Reporter Cell Line J774) [µM],EC50 ([4]; Human Reporter Cell Line THP1) [µM],other results
COc1ccc(C(=O)Nc2ccc(N3CCN(C(=O)c4cccs4)CC3)cc2)c2ccccc12 [NA-15],,,,,"CC50 ([1]; Human Reporter Cell Line): > 25 µM; EC50 [2, 6]: 5.89 µM; CC50 (J774-Dual cytotoxicity; Mouse Reporter Cell Line): > 25 µM; EC50 [3, 7]: 1.63 µM"
O=C(Nc1ccc(N2CCN(C(=O)c3cccs3)CC2)cc1)c1ccc(OCc2ccccc2)cn1 [NA-60],,,,,"CC50 ([1]; Human Reporter Cell Line): 23 µM; EC50 [2, 6]: 2.23 µM; EC50 [4, 6]: 2.27 µM; J774 IRF % activation at peak ([5]; Mouse Reporter Cell Line): 33.91%; EC50 [5, 7]: 1.77 µM"
CCCCOc1nc(N)c2c(n1)N(Cc1cccc(CN3CCCC3)c1)CC(=O)N2 [NA-63],,,,,"EC50 [4, 6]: 2.94 µM; CC50 (J774-Dual cytotoxicity; Mouse Reporter Cell Line): 73.9 µM; EC50 [3, 7]: 2.77 µM"
COc1ccc(NC(=O)c2cc(NC(=O)c3cccs3)ccc2N2CCOCC2)cc1 [NB-14],> 25,6.9,> 25,,"EC50 [3, 8]: 11.3 µM"
COc1ccc(C(=O)Nc2ccc(O)c(-c3nc4ccccc4s3)c2)cc1[N+](=O)[O-] [ND-65],> 25,5.39,> 25,12,
COc1ccc(C(=O)Nc2cc(-c3nc4ccccc4s3)ccc2C)cc1OC [ND-66],17.9,,> 25,~0.66,"J774 IRF % activation at peak ([5]; Mouse Reporter Cell Line J774, at peak): ~32.86%; EC50 [5, 8]: ~28.6 µM"
COc1ccc(-c2nc3ccccc3s2)cc1NC(=O)c1ccc([N+](=O)[O-])cc1Cl [ND-67],8.87,0.401,> 25,~12.3,
Cc1ccc(C(=O)Nc2cc(-c3nc4ccccc4s3)ccc2C)cc1Cl [ND-70],17.4,4.76,> 25,~4.33,
Cc1cc2nc(-c3ccc(C)c(NC(=O)c4ccc([N+](=O)[O-])cc4)c3)oc2cc1C [ND-71],> 25,8.49,> 25,6.94,
CCCN(CCC)C(=O)C1=Cc2ccc(-c3ccc(C(=O)N4CCCC4)cc3)cc2N=C(N)C1 [ND-88],> 25,,> 25,1.72,"EC50 [3, 8]: 0.72 µM"
COc1ccc(C(=O)Nc2cc(-c3nc4ccccc4s3)ccc2Cl)cc1[N+](=O)[O-] [ND-89],> 25,~0.496,> 25,10.6,
Cc1ccc(C(=O)Nc2cc(-c3nc4cc(C(C)C)ccc4o3)ccc2C)cc1C [ND-103],,,,25,"EC50 [3, 8]: 9.17 µM"
"COc1cccc2c1C(=O)c1c(O)c3c(c(O)c1C2=O)C[C@@](O)(C(C)=O)C[C@@H]3O[C@H]1C[C@H](N)[C@H](O)[C@H](C)O1 [OTR-0000353-001 (Daunorubicin), Daunorubicin, reference compound]",,,,,"Average ISRE/NFκB (Range) ([2]; human THP1 pilot screen, 10 μM, 3 screens): 0.7 (0.2-1.0); Average ISRE % Activation ([2]; human THP1 pilot screen, 10 μM, 24 hours, percent of LPS activation signal +/− SD, 3 screens): 4.0 +/− 1.8%; Average ISRE/NFκB (Range) ([5]; mouse J774-Dual pilot screen, 3 screens): 0.1 (0.09-0.18); Average ISRE % Activation ([5]; mouse J774-Dual pilot screen, percent of LPS activation signal +/− SD, 3 screens): 5.4 +/− 1.6%; ISRE activation in both THP1-Dual and J774-Dual screens ([5]; pilot screens): cross-species ISRE activity; NF-κB activation in J774 screen ([3]; J774-Dual pilot screen): high NF-κB activity"
